Experimental data published in patent publication US5618812A, “Benzodiazepine derivatives” (Merck Sharp & Dohme, Ltd., priority 1992, dated 1997).
Structures can show the parent of a compound that is named as a salt. Where two headings read alike, the source gives them in different places.

Legend:
[1] = target: T1, CCK-A (Rattus norvegicus, UniProt P30551); test: biochemical; type: binding
T1 sequence (P30551 1-444): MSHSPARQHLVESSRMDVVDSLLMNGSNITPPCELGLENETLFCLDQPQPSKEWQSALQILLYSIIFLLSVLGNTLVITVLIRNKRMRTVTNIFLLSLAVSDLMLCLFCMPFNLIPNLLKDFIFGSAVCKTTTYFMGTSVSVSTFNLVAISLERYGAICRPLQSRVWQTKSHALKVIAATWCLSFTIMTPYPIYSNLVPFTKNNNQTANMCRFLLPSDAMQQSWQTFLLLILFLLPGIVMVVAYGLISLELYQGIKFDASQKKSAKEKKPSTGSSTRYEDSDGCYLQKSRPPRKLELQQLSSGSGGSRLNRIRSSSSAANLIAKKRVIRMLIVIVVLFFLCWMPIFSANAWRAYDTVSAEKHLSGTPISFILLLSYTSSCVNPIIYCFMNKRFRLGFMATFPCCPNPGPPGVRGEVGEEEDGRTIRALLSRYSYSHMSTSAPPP
Procedure: (§1) The CCK-A and CCK-B antagonising activity of the compounds described herein was evaluated using the assays described in published European patent application no. 0514133. The method essentially involves determining the concentration of the test compound required to displace 50% of the specific ^125 I-CCK from rat pancreas (CCK-A) or guinea pig brain (CCK-B).

[2] = target: T2, CCK-B (Cavia porcellus, UniProt H0VZC5); test: displacement of specific 125I-CCK from guinea pig brain (CCK-B receptor binding)
T2 construct: guinea pig brain (CCK-B); from tissue; host or cells: guinea pig brain
T2 sequence (H0VZC5 1-426): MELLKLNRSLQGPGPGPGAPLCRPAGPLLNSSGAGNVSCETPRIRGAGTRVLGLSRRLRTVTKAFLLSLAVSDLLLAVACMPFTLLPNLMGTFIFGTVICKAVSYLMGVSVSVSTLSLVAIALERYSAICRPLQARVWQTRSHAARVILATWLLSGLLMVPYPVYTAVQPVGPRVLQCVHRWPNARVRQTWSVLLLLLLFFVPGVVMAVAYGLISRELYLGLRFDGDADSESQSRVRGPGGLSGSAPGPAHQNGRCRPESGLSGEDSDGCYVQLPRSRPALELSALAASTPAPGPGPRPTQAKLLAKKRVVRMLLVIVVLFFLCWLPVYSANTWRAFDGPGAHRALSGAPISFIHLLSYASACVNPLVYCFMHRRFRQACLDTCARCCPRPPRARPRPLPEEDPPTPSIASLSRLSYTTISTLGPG
Procedure: as §1, with “(CCK-B). The data in Table 1 were obtained for compounds of the Examples.” for “(CCK-B).”

[3] = rat pancreas (CCK-A), 125I-CCK, read-out: CCK RECEPTOR BINDING RESULTS IC50 125I-CCK Pancreas
[4] = read-out: CCK RECEPTOR BINDING RESULTS IC50 125I-CCK Brain
[5] = CCK RECEPTOR BINDING RESULTS IC50 125I-CCK Pancreas, rat pancreas (CCK-A), 125I-CCK
[6] = CCK RECEPTOR BINDING RESULTS IC50 125I-CCK Brain
[7] = read-out: CCK RECEPTOR BINDING RESULTS IC50 125I-CCK Pancreas

| Compound | IC50 [1, 3] | IC50 [2, 4] | IC50 [1, 5] | IC50 [2, 6] | IC50 [1, 7] |
| --- | --- | --- | --- | --- | --- |
| Cc1cccc(NC(=O)NC2N=C(N(C)C3CCCCCC3)c3ccccc3N(C)C2=O)c1 (single isomer, unassigned; (+)) [Example 68, (+)-5-(N-Cycloheptyl-N-methylamino)-2,3-dihydro-1-methyl-2-oxo-1H-1,4-benzodiazepin-3-yl-N'-[3-methylphenyl]urea. Hydrochloride] | 53.4 nM | 26.6 nM |  |  |  |
| CN1C(=O)C(NC(=O)c2cc3ccccc3[nH]2)N=C(N2CC3CCC(CC3)C2)c2ccccc21 (single isomer, unassigned; (+)) [Example 89, (+)-N-(5-(3-Azabicyclo[3,2,2]nonan-3-yl)-2,3-ihydro-1-methyl-2-oxo-1H-1,4-benzodiazepin-3-yl)-1H-indole-2-carboxamide dihydrochloride] | 0.26 nM | 653 nM |  |  |  |
| CC1CCN(C2=NC(NC(=O)Nc3ccc4c(c3)CCC4)C(=O)N(C)c3ccccc32)CC1 (single isomer, unassigned; (-)) [Example 12, (-)-N-[2,3,Dihydro-1-methyl-5-(4-methylpiperidin-1-yl)-2-oxo-1H-1,4-benzodiazepin-3-yl]N'-[indan-5-yl]urea hydrochloride] | 2180 nM | 0.28 nM |  |  |  |
| Cc1cccc(NC(=O)NC2N=C(N3CCCC(C)(C)C3)c3ccccc3N(C)C2=O)c1 (single isomer, unassigned; (-)) [Example 26, (-)-N-[2,3-dihydro-(3,3-dimethylpiperidin-1-yl)-1-methyl-2-oxo-1H-1,4-benzodiazepin-3-yl]N'-[3-methylphenyl]urea] | > 3000 nM | 0.27 nM |  |  |  |
| CN1C(=O)C(NC(=O)Nc2cccc(F)c2)N=C(N2CC3CCC(CC3)C2)c2ccccc21 (single isomer, unassigned; (-)) [Example 36, (-)-N-[5-(3-Azabicyclo[3,2,2]nonan-3-yl)-2,3-dihydro-1-methyl-2-oxo-1H-1,4-benzodiazepin-3-yl]-N'-[3-fluorophenyl]urea Hydrochloride] |  |  | 1400 nM | 0.32 nM |  |
| Cc1cccc(NC(=O)NC2N=C(N3CC4CCC(C4)C3)c3ccccc3N(C)C2=O)c1 (single isomer, unassigned; (-)) [Example 39, (-)-N-[5-(3-Azabicyclo[3,2,1]octan-3-yl)-2,3-dihydro-1-methyl-2-oxo-1H-1,4-benzodiazepin-3-yl]-N'-[3-methylphenyl]urea Hydrochloride] |  | 0.17 nM |  |  | 4010 nM |
| CN1C(=O)C(NC(=O)Nc2ccc3c(c2)CCC3)N=C(N2CC3CCC(CC3)C2)c2ccccc21 (single isomer, unassigned; (-)) [Example 41, (-)-N-[5-(3-Azabicyclo[3,2,2]nonan-3-yl)-2,3-dihydro-1-methyl-2-oxo-1H-1,4-benzodiazepin-3-yl]-N'-[5-indanyl]urea] | > 3000 nM |  |  | 0.37 nM |  |
| Cc1ccc(NC(=O)NC2N=C(N3CC4CCC(CC4)C3)c3ccccc3N(C)C2=O)cc1F (single isomer, unassigned; (-)) [Example 45, (-)-N-[5-(3-Azabicyclo[3,2,2]nonan-3-yl)-2,3-dihydro-1-methyl-2-oxo-1H-1,4-benzodiazepin-3-yl]-N'-[3-fluoro-4-methylphenyl]urea Hydrochloride] |  |  | > 3000 nM | 0.42 nM |  |
| CN1C(=O)C(NC(=O)Nc2cccc(I)c2)N=C(N2CC3CCC(CC3)C2)c2ccccc21 (single isomer, unassigned; (-)) [Example 48, (-)-N-[5-(3-Azabicyclo[3,2,2]nonan-3-yl)-2,3-dihydro-1-methyl-2-oxo-1H-1,4-benzodiazepin-3-yl]-N'-[3-iodophenyl]urea] | 2420 nM |  |  | 1.11 nM |  |
| Cc1cc(NC(=O)NC2N=C(N3CC4CCC(CC4)C3)c3ccccc3N(C)C2=O)ccc1F (single isomer, unassigned; (-)) [Example 53, (-)-N-[5-(3-Azabicyclo[3,2,2]nonan-3-yl)-2,3-dihydro-1-methyl-2-oxo-1H-1,4-benzodiazepin-3-yl]-N'-[4-fluoro-3-methylphenyl]urea Hydrochloride] |  |  | 3760 nM | 0.18 nM |  |
| CN1C(=O)C(NC(=O)Nc2cccc(C(F)(F)F)c2)N=C(N2CC3CCC(CC3)C2)c2ccccc21 (single isomer, unassigned; (-)) [Example 55, (-)-N-[5-(3-Azabicyclo[3,2,2]nonan-3-yl)-2,3-dihydro-1-methyl]-2-oxo-1H-1,4-benzodiazepin-3-yl]-N'-[3-trifluoromethylphenyl]urea Hydrochloride] | > 3000 nM |  |  | 0.73 nM |  |
| Cc1cccc(NC(=O)NC2N=C(N3C[C@H]4CCCC[C@H]4C3)c3ccccc3N(C)C2=O)c1 (single isomer, unassigned; (-)) [Example 58, (-)-N-[2,3-Dihydro-1-methyl-5-(cis-octahydroisoindol-2-yl)-2-oxo-1H-1,4-benzodiazepin-3-yl]-N'-[3-methylphenyl]urea hydrochloride] |  | 2 nM |  |  | 2260 nM |
| CCCN1C(=O)C(NC(=O)Nc2cccc(C)c2)N=C(N(C)C2CCCCC2)c2ccccc21 (single isomer, unassigned; (-)) [Example 61, (-)-5-(N-Cyclohexyl-N-methylamino)-2,3-dihydro-2-oxo-1-propyl-1H-1,4-benzodiazepin-3-yl-N'[3-methylphenyl]urea] | 704 nM | 0.22 nM |  |  |  |
| Cc1cccc(NC(=O)NC2N=C(N(C)C3CCCCC3)c3ccccc3N(C)C2=O)c1 (single isomer, unassigned; (-)) [Example 64, (-)5-(N-Cyclohexyl-N-methylamine)-2,3-dihydro-2-oxo-1-methyl-1H-1,4-benzodiazepin-3-yl-N'-[3-methylphenyl]urea. Hydrochloride] | 2070 nM | 0.22 nM |  |  |  |
| Cc1cccc(NC(=O)NC2N=C(N(C)C3CCCCCC3)c3ccccc3N(C)C2=O)c1 (single isomer, unassigned; (-)) [Example 67, (-)-5-(N-Cycloheptyl-N-methylamino)-2,3-dihydro-1-methyl-2-oxo-1H-1,4-benzodiazepin-3-yl-N'-[3-methylphenyl]urea, Hydrochloride] | 2000 nM | 0.1 nM |  |  |  |
| CN1C(=O)C(NC(=O)Nc2ccc3c(c2)CCC3)N=C(N(C)C2CCCCCC2)c2ccccc21 (single isomer, unassigned; (-)) [Example 70, (-)-5-(N-Cycloheptyl-N-methylamino)-2,3-dihydro-1-methyl-2-oxo-1H-1,4-benzodiazepin-3-yl-N'-[5-indanyl]urea. Hydrochloride] | > 3000 nM | 0.61 nM |  |  |  |
| CN1C(=O)C(NC(=O)c2cc3ccccc3[nH]2)N=C(N2CC3CCC(CC3)C2)c2ccccc21 (single isomer, unassigned; (-)) [Example 88, (-)-N-(5-(3-Azabicyclo[3,2,2]nonan-3-yl)-2,3-dihydro-1-methyl-2-oxo-1H-1,4-benzodiazepin-3-yl)-1H-indole-2-carboxamide hydrochloride] |  |  | 393 nM | 66 nM |  |
| Cc1cccc(NC(=O)NC2N=C(N3[C@H](C)CCC[C@@H]3C)c3ccccc3N(C)C2=O)c1 (stereo partly drawn) [Example 6, N-[3(R,S)-2,3-Dihydro-5-(cis-2,6-dimethylpiperidin-1-yl)-1-methyl-2-oxo-1H-1,4-benzodiazepin-3-yl]N'-[3-methylphenyl]urea] | 235 nM | 10.9 nM |  |  |  |
| C[C@@H]1CCC[C@H](C)N1C1=NC(NC(=O)Nc2ccc3c(c2)CCC3)C(=O)N(C)c2ccccc21 (stereo partly drawn) [Example 13, N-[3(R,S)-2,3-Dihydro-5-(cis-2.6-dimethylpiperidin-1-yl)-1-methyl-2-oxo-1H-1,4-benzodiazepin-3-yl]N'-[indan-5-yl]urea] | 496 nM | 1.53 nM |  |  |  |
| Cc1cccc(NC(=O)NC2N=C(N3C[C@@H](C)O[C@@H](C)C3)c3ccccc3N(C)C2=O)c1 (stereo partly drawn) [Example 16, N-[3(R,S)-2,3-Dihydro-5-(cis-2,6-dimethylmorpholin-4-yl)-1-methyl-2-oxo-1H-1,4-benzodiazepin-3-yl]N'-[3-methylphenyl]urea] | 2650 nM | 19.1 nM |  |  |  |
